According to patent US6114127A, “Methods of screening for agonists and antagonists of the HDPXU17 receptor” (SmithKline Beecham Corporation, priority 1998, dated 2000):
pEC50: −log10 of the molar value. Entries after “also recorded” stand apart in the source; their conditions may differ.

Tests used:
[1] = biological target: T1, HDPXU17 receptor (P2Y-like receptor) (Homo sapiens, UniProt Q96G91); experiment: Gs reporter gene luciferase assay, HEK 293 cells stably expressing the luciferase reporter, transfected with HDPXU17 DNA; format: cell-based; settings: for luciferase activity: concentration ranges from 3-300,000 nM, HDPXU17-transfected HEK 293 reporter cells, result in words; for pEC50: luciferase activity, HEK 293 MREIIVIPII reporter cells transfected with HDPXU17, 3-300,000 nM
T1 construct: expressed in transfected cells; host or cells: HEK 293 cells stably expressing the MREIIVIPII luciferase reporter gene, transiently transfected with pCDN-HDPXU17 DNA (Lipofectamine)
T1 sequence (Q96G91 1-374): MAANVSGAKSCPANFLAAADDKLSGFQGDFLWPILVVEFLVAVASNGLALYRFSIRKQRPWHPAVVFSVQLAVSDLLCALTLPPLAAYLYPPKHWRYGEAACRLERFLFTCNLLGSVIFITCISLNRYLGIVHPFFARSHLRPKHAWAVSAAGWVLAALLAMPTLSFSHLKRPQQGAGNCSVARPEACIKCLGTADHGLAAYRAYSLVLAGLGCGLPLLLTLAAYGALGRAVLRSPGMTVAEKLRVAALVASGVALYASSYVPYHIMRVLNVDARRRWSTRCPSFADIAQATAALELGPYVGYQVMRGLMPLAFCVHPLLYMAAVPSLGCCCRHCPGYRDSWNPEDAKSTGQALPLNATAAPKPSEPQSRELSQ
Description: (§1) The Gs reporter gene luciferase assay for orphan G-protein coupled receptors has been developed using a recombinant construct MREIVIPII plasmid, which has been disclosed European Patent Application No. 0 863 214, published on Sep. 9, 1998. This assay utilizes a luciferase gene fused to three copies of multiple response elements (MREs), one copy of cAMP response element (CRE) and the basal promoter of the vasointestinal peptide (VIP) gene to specifically monitor protein kinase A activation that results from an increase in intracellular cAMP. The system is not sensitive to activation of protein kinase C pathways. Rather, it responds to increases in cAMP mediated by endogenous and recombinant Gs-coupled GPCR activation with up to 120-fold increases in luciferase activity.
(§2) The assay begins when HEK 293 cells stably expressing the MREIIVIPII luciferase reporter gene were seeded at 4,500,000 per flask and incubated overnight at 37° C. The next day, solutions A (4 ug of pCDN-HDPXU17DNA was added to 0.8 ml EMEM without serum) and B (23.1 ul Lipofectamine was mixed in 0.8 ml EMEM without serum) were prepared, mixed together and incubated 30 min at room temperature. During the incubation, the culture medium was aspirated from cells and replaced with 12.5 ml serum-free EMEM. Next, the DNA and Lipofectamine mixture was added to the cells and incubated at 37° C. for 6 hours. After 6 hours, 13 ml of EMEM containing 10% FBS was added to the cells and incubated overnight at 37° C. The next day, the 96-well plates were pretreated with 1× Matrixgel solution at 50 ul/well for one hour. Then, the matrixgel solution and plate cells were aspirated at 2000-4000 cells/well. After overnight incubation at 37° C., 5-20 ul /well of the test compounds were added to the 96-well plates and incubated at 37° C. After 6 hours, the medium of each well was aspirated, 25 ul of 1×PBS without calcium and magnesium was added, the plates were frozen at -70° C. Then, the plates were allowed to thaw. Luc-lite solution (25 ul/well) was added and luciferase activity was measured by TopCount HTS.
In stable HDPXU17-expressing 293 cells(clone 20#) cells transiently transfected with MREIIVIPII plasmid, similar results are obtained.

[2] = biological target: T1, HDPXU17 receptor (P2Y-like receptor); experiment: Gs reporter gene luciferase assay, stable HDPXU17-expressing 293 cells (clone 20#) transiently transfected with MREIIVIPII plasmid; format: cell-based; settings: for pEC50: luciferase activity, stable HDPXU17-expressing 293 cells (clone 20#) transiently transfected with MREIIVIPII plasmid
Description: as §1
as §2, with “HTS. […]” for “HTS.”

luciferase activity ([2]; stable HDPXU17-expressing 293 cells (clone 20#), result in words) | pEC50 [1] | pEC50 [2] | Structure (SMILES) | luciferase activity [1] | best ligand for HDPXU 17 receptor ([1]; based on results in both transient and stable HDPXU17 cells)
still weak, but specific |  |  | O=c1ccn([C@@H]2O[C@H](COP(=O)(O)OP(=O)(O)OP(=O)(O)O)[C@@H](O)[C@H]2O)c(=O)[nH]1 [UTP, uridine triphosphate] | increase luciferase activity only in cells transfected with the HDPXU17 receptor; also recorded: specific, but weak | 
 | 4.76 | 5.39 | Nc1ncnc2c1ncn2[C@H]1C[C@H](O)[C@@H](COP(=O)(O)OP(=O)(O)OP(=O)(O)O)O1 [dATP, deoxyadenosine triphosphate] | increase luciferase activity only in cells transfected with the HDPXU17 receptor | appears to be the best ligand for HDPXU 17 receptor
 |  |  | Nc1nc2c(ncn2[C@H]2C[C@H](O)[C@@H](COP(=O)(O)OP(=O)(O)OP(=O)(O)O)O2)c(=O)[nH]1 [dGTP] | no effect on luciferase activity | 
 |  |  | Cc1cn([C@H]2C[C@H](O)[C@@H](COP(=O)(O)OP(=O)(O)OP(=O)(O)O)O2)c(=O)[nH]c1=O [dTTP] | no effect on luciferase activity | 
 |  |  | Nc1ccn([C@H]2C[C@H](O)[C@@H](COP(=O)(O)OP(=O)(O)OP(=O)(O)O)O2)c(=O)n1 [dCTP] | no effect on luciferase activity | 
 | 3.98 | 3.70 | Nc1ncnc2c1ncn2[C@H]1C[C@H](O)[C@@H](COP(=O)(O)O)O1 [dAMP, deoxyadenosine monophosphate] | increase luciferase activity only in cells transfected with the HDPXU17 receptor | 
